ChEMBL document CHEMBL1136662, “Synthesis and properties of 11-(3,5-di-tert-butyl-2-hydroxyphenylcarbamoyl)undecanoic acid, a new amphiphilic antioxidant” (Bioorg Med Chem Lett, 2003)

Test: Hydrophobicity was determined
Format: ADME

For CC(C)(C)c1cc(NC(=O)CCCCCCCCC(=O)O)c(O)c(C(C)(C)C)c1, the “k'” value was 0.38.

In the case of CCCCCCCCCC(=O)Nc1cc(C(C)(C)C)cc(C(C)(C)C)c1O, the “k'” value is reported as 7.13.

For CCCCCCCCCCCCCC(=O)Nc1cc(C(C)(C)C)cc(C(C)(C)C)c1O, the “k'” value was 25.2.

For COCCCCCCCCCCCC(=O)Nc1cc(C(C)(C)C)cc(C(C)(C)C)c1O, the “k'” value was 6.39.

For CCCCCCCCCCCC(=O)Nc1cc(C(C)(C)C)cc(C(C)(C)C)c1O, the “k'” value was 12.6.
